pIC50: −log10 of the molar value.
Legend:
A2780 [1] = test: Growth inhibition of human wild type A2780 cells after 72 hrs; type: functional, cell-based; conditions: A2780, 72 h
A2780 [2] = test: Growth inhibition of human cisplatin-resistant A2780 cells after 72 hrs; type: functional, cell-based; conditions: A2780, 72 h
A2780 [3] = test: Growth inhibition of human topotecan-resistant A2780 cells after 72 hrs; type: functional, cell-based; conditions: A2780, 72 h
A2780 [4] = test: Growth inhibition of human adriamycin and doxorubicin-resistant A2780 cells after 72 hrs; type: functional, cell-based; conditions: A2780, 72 h
[5] = Growth inhibition of human paclitaxel-resistant A2780TC1 cells overexpressing class 3 beta-tubulin after 72 hrs; type: functional, cell-based; conditions: A2780TC1, 72 h
[6] = Growth inhibition of human paclitaxel-resistant A2780TC3 cells overexpressing class 3 beta-tubulin after 72 hrs; type: functional, cell-based; conditions: A2780TC3, 72 h
A2780 [7] = test: Resistant factor, IC50 for human paclitaxel-resistant A2780TC3 cells overexpressing class 3 beta-tubulin to IC50 for human wild type A2780 cells; type: functional
[8] = Ratio of IC50 for IDN 5390 to IC50 for paclitaxel against human paclitaxel-resistant A2780TC3 cells overexpressing class 3 beta-tubulin; type: functional
[9] = Ratio of IC50 for drug to IC50 for paclitaxel against human paclitaxel-resistant A2780TC3 cells overexpressing class 3 beta-tubulin; type: functional
[10] = Ratio of IC50 for drug to IC50 for IDN 5390 against human paclitaxel-resistant A2780TC3 cells overexpressing class 3 beta-tubulin; type: functional
A2780 [11] = test: Ratio of IC50 for drug to IC50 for paclitaxel against human adriamycin and doxorubicin-resistant A2780 cells; type: functional
A2780 [12] = test: Ratio of IC50 for drug to IC50 for IDN 5390 against human adriamycin and doxorubicin-resistant A2780 cells; type: functional
[13] = Ratio of IC50 for drug to IC50 for paclitaxel against human paclitaxel-resistant A2780TC1 cells overexpressing class 3 beta-tubulin; type: functional
A2780 [14] = test: Resistant factor, IC50 for human paclitaxel-resistant A2780TC1 cells overexpressing class 3 beta-tubulin to IC50 for human wild type A2780 cells; type: functional, cell-based

Structure (SMILES)	pIC50 (A2780 [1])	pIC50 (A2780 [2])	pIC50 (A2780 [3])	pIC50 (A2780 [4])	pIC50 [5]	pIC50 [6]	Ratio IC50 (A2780 [7])	Ratio IC50 [8]	Ratio IC50 [9]	Ratio IC50 [10]	Ratio IC50 (A2780 [11])	Ratio IC50 (A2780 [12])	Ratio IC50 [13]	Ratio IC50 (A2780 [14])
CC(=O)O[C@@]1([C@@H]2/C(C)=C(/O)C(=O)C3=C(C)[C@@H](OC(=O)[C@H](O)[C@H](CC(C)C)NC(=O)OC(C)(C)C)C[C@@](O)([C@H]2OC(=O)c2ccccc2)C3(C)C)CO[C@@H]1CCO	7.76	7.77	7.56	5.58	5.69	5.65	129	8						
COc1cccc(C(=O)O[C@H]2[C@H]([C@]3(OC(C)=O)CO[C@@H]3CCO)/C(C)=C(/O)C(=O)C3=C(C)[C@@H](OC(=O)[C@H](O)[C@H](C=C(C)C)NC(=O)OC(C)(C)C)C[C@]2(O)C3(C)C)c1	8.34	8.24	8.59	6.41	5.98	6.31			24	3	2.1	4.3	2.3	
COc1cccc(C(=O)O[C@H]2[C@H]([C@]3(OC(C)=O)CO[C@@H]3CCO)/C(C)=C(/O)C(=O)C3=C(C)[C@@H](OC(=O)[C@H](O)[C@H](CC(C)C)NC(=O)OC(C)(C)C)C[C@]2(O)C3(C)C)c1	8.17	8.37	8.46	6.45	5.95	6.68	31		24	3	2.1	4.3	2.3	
CC(=O)O[C@@]1([C@@H]2/C(C)=C(/O)C(=O)C3=C(C)[C@@H](OC(=O)[C@H](O)[C@H](CC(C)C)NC(=O)OC(C)(C)C)C[C@@](O)([C@H]2OC(=O)c2cccc(Cl)c2)C3(C)C)CO[C@@H]1CCO	8.26	8.39	8.34	6.22	5.74	6.41			24	3	2.1	4.3	2.3	
CC(=O)O[C@@]1([C@@H]2/C(C)=C(/O)C(=O)C3=C(C)[C@@H](OC(=O)[C@H](O)[C@H](C=C(C)C)NC(=O)OC(C)(C)C)C[C@@](O)([C@H]2OC(=O)c2cccc(Cl)c2)C3(C)C)CO[C@@H]1CCO	8.34	8.40	8.77	6.34	6.12	6.45			24	3	2.1	4.3	2.3	163
CC(=O)O[C@@]1([C@@H]2/C(C)=C(/O)C(=O)C3=C(C)[C@@H](OC(=O)[C@H](O)[C@H](CC(C)C)NC(=O)OC(C)(C)C)C[C@@](O)([C@H]2OC(=O)c2cccc(F)c2)C3(C)C)CO[C@@H]1CCO	7.95	7.93	7.89	5.43	5.82	6.34			24	3			2.3	
CC(=O)O[C@@]1([C@@H]2/C(C)=C(/O)C(=O)C3=C(C)[C@@H](OC(=O)[C@H](O)[C@H](C=C(C)C)NC(=O)OC(C)(C)C)C[C@@](O)([C@H]2OC(=O)c2cccc(F)c2)C3(C)C)CO[C@@H]1CCO				5.65					24	3				
